Here are results for one molecule from patent US4568666A, “Carboxylalkyl peptide derivatives” (G. D. Searle & Co., priority 1984, dated 1986).

Experiment [1] has as its target T1, Human Rheumatoid Synovial Collagenase (Homo sapiens, UniProt P03956).
T1 construct: from tissue
T1 sequence (P03956 100-469): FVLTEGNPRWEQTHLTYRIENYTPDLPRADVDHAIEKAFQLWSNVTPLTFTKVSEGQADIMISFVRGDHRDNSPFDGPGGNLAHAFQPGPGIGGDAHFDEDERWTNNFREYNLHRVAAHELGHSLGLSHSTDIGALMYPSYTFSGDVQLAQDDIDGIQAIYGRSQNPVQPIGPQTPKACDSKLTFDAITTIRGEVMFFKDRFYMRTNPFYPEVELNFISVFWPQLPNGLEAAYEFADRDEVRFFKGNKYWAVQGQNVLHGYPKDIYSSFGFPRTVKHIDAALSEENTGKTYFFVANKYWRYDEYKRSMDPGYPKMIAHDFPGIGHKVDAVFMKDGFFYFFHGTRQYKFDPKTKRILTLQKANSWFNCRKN
Description: Collagenase inhibition (procedure of Cawston and Barrett, acetyl 14C collagen). The format is biochemical. Particulars: 37° C., 16 hours, native acetyl 14C collagen, Tris HCl-CaCl2 pH 7.6. As for the experimental part:
This was determined following the procedure of Cawston and Barrett, Anal. Biochem., 99, 340-345 (1979) whereby the 1 mM of the inhibitor being tested or dilutions thereof are incubated at 37° C. for 16 hours with native collagen and collagenase (buffered with Tris HCl--CaCl2; pH 7.6). The collagen is acetyl ^14 C collagen. The samples are centrifuged to sediment undigested collagen and an aliquot of the radiactive supernatant removed for assay on a scintillation counter as a measure of hydrolysis. The collagenase activity in the presence of 1 mM inhibitor, or a dilution thereof, is compared to activity in a control devoid of inhibitor and the results reported as that inhibitor concentration effecting 50% inhibition of the collagenase.

Experiment [2] has as its system rat model of inflammatory arthritis. Description: Rat model of inflammatory arthritis induced by Type II collagen (Trentham et al.). In kind it is in vivo. Particulars: prednisolone 0.625 mg/kg b.i.d. As for the experimental part: The therapeutic effectivness is assessed in the rat model of inflammatory arthritis described by Trentham et al. (1977). In this model, the arthritis, induced by an intradermal injection of Type II collagen, generally develops in both hind paws and the progression and severity of the lesion are monitored by physical measurements of the malleolar width and ankle extensibility.
The compound of Example II in the present specification was administered by intraperitoneal injections at 100 mg/kg twice daily for 21 days commencing seven days after the injection of the disease.
Drugs (Example 11 or prednisolone) and vehicle were administered to groups of 10 rats each. Physical measurements on the rat paws were made weekly for four weeks and consisted of (a) the distance between the medial and lateral malleolus (malleolar width) and (b) the ankle extension which was measured by applying a standard force to th rat paw and measuring the angle formed between the flexor surface of the foot and the tibia. Evidence of a therapeutic effect was denoted by a significant reduction in malleolar width and a significant increase in ankle extension. Both measurements were carried out in apparatus designed for the purpose. Area-under-the-curve data from these time course experiments was examinaed by non-parametic statistical analysis. The prednisolone standard was given at a dose of 0.625 mg/kg b.i.d. Prednisolone was chosen as a standard since steroids are known to be effective both clinically in Rheumatoid Arthritis and in animal models of arthritis.

Setting [3] is: arthritic rats' paws, Example 11 100 mg/kg i.p. twice daily for 21 days, area-under-the-curve data.

Broadly, the IC50 is the concentration at which inhibition is half-maximal. Low values mean inhibition by little substance, high ones a need for much substance. Take `CNC(=O)[C@H](Cc1ccc(OC)cc1)NC(=O)[C@H](CC(C)C)N[C@H](CCNC(=O)OCc1ccccc1)C(=O)O` [Example 11, N-[3-N-(Benzyloxycarbonyl)amino-1-(R)-carboxypropyl]-L-leucyl-O-methyl-L-tyrosine N-Methylamide]: the concentration for half-maximal inhibition (IC50) in experiment [1] came out at 0.8 µM. In experiment [2] (setting [3]), the “Ankle extension, percentage change from control, experiment number 1” value is reported as 66%; the “Ankle extension, percentage change from control, experiment number 2” value is listed as 39%; the “Ankle extension, percentage change from control, experiment number 3” value is reported as 39%; the “Malleolar width, percentage change from control, experiment number 1” value came out at 65%. Moreover, in experiment [2] (setting [3]), the “Malleolar width, percentage change from control, experiment number 2” value was 43% and the “Malleolar width, percentage change from control, experiment number 3” value was 41%. In addition, in experiment [2] (mean of experiments 1-3, Example 11 100 mg/kg i.p. twice daily), the “Ankle extension, percentage change from control, mean” value came to 48%.
